Reference: patent publication US9521850B2 (University of Florida Research Foundation, Incorporated, priority 2012, dated 2016)
pIC50: −log10 of the molar value. ≈ marks a conversion by molar mass, not a printed value.

What was measured:
A. tumefaciens = assay: microbe, parasite or virus in culture; format: cell-based; conditions: Agrobacterium tumefaciens, 24 h
CLAS = CLAS transmission rate using graft-based approach (Example 3); format: in vivo; conditions: budwood treated at 500 μg/ml, grafted onto Valencia trees
Protocol: HLB-infected budwoods were collected in HLB infected grove in teaching block at CREC. The presence of CLAS titers in budwood was confirmed by qPCR.
C16 and streptomycin were applied at the rate of 500 μg/ml; water-treated budwood was used as check. The budwoods were placed in a glass bottle containing either treatment or water as check. The glass bottles were kept in a ventilation hood with light on to increase the evaporation rate, therefore, promoting the uptake of antibiotics. Leaf and bark samples were collected from each budwood and 100 mg were accurately weighed and used for DNA extraction with Promega genomic DNA extraction kit. CLAS populations in each sample were determined using standard qPCR protocol. Each DNA sample was run in triplicate wells.
After overnight treatment, the antibiotic-treated budwood was grafted onto 2-3 years old Valencia trees. A total of 15 trees were grafted for each treatment. […] Four leaves from the main stem of Valencia trees were sampled for DNA extraction and determination of CLAS populations.

Liberibacter crescens = assay: microbe, parasite or virus in culture; format: cell-based
Rhizobium etli = assay: microbe, parasite or virus in culture; format: cell-based
Bradyrhizobium japonicum = assay: microbe, parasite or virus in culture; format: cell-based
Xanthomonas citri = assay: microbe, parasite or virus in culture; format: cell-based, Xanthomonas citri subsp. citri
Mesorhizobium loti = assay: microbe, parasite or virus in culture; format: cell-based
Sinorhizobium meliloti = assay: microbe, parasite or virus in culture; format: cell-based
[1] = tested on: Agrobacterium tumefaciens; assay: microbe, parasite or virus in culture; format: cell-based
SecA of Ca. L. asiaticus = SecA of Ca. L. asiaticus (Candidatus Liberibacter asiaticus, UniProt A0ABM5NFG5); assay: biochemical
CLAS populations = assay: Effect on CLAS populations, mean Ct by quantitative PCR (Example 2)

| SMILES | MBC (A. tumefaciens) [µg/mL] | CLAS transmission rate (% trees tested positive for CLAS) (CLAS; 3 months after grafting) [%] | CLAS transmission rate (% trees tested positive for CLAS) (CLAS; 6 months after grafting) [%] | MBC (Liberibacter crescens; 24 h) [µg/mL] | MIC (Liberibacter crescens; 24 h) [µg/mL] | MBC (Liberibacter crescens; 120 h) [µg/mL] | MIC (Liberibacter crescens; 120 h) [µg/mL] | MBC (Rhizobium etli; 24 hrs) [µg/mL] | MIC (Rhizobium etli; 24 hrs) [µg/mL] | MBC (Rhizobium etli; 120 hrs) [µg/mL] | MIC (Rhizobium etli; 120 hrs) [µg/mL] | MBC (Bradyrhizobium japonicum; 24 hrs) [µg/mL] | MIC (Bradyrhizobium japonicum; 24 hrs) [µg/mL] | MBC (Bradyrhizobium japonicum; 120 hrs) [µg/mL] | MIC (Bradyrhizobium japonicum; 120 hrs) [µg/mL] | MBC (Xanthomonas citri) [µg/mL] | MIC (Xanthomonas citri) [µg/mL] | MBC (Mesorhizobium loti) [µg/mL] | MIC (Mesorhizobium loti) [µg/mL] | MBC (Sinorhizobium meliloti) [µg/mL] | other results |
| --- | --- | --- | --- | --- | --- | --- | --- | --- | --- | --- | --- | --- | --- | --- | --- | --- | --- | --- | --- | --- | --- |
| [H]/N=C(/N)N[C@H]1[C@H](O)[C@@H](O)[C@H](O[C@@H]2O[C@@H](C)[C@](O)(C=O)[C@H]2O[C@@H]2O[C@@H](CO)[C@H](O)[C@@H](O)[C@@H]2NC)[C@@H](N/C(N)=N\[H])[C@@H]1O [Streptomycin, reference compound] | 64 (≈ 110 µM) | 13.3 | 66.7 | 16 (≈ 27.5 µM) | 16 (≈ 27.5 µM) | 32 (≈ 55 µM) | 32 (≈ 55 µM) | 4 (≈ 6.88 µM) | 4 (≈ 6.88 µM) | 16 (≈ 27.5 µM) | 16 (≈ 27.5 µM) | 32 (≈ 55 µM) | 32 (≈ 55 µM) | 32 (≈ 55 µM) | 32 (≈ 55 µM) | 32 (≈ 55 µM) | 32 (≈ 55 µM) | 32 (≈ 55 µM) | 16 (≈ 27.5 µM) | 128 (≈ 220 µM) | MIC (Sinorhizobium meliloti): 64 µg/mL (≈ 110 µM); MBC [1]: 128 µg/mL (≈ 220 µM); MIC [1]: 64 µg/mL (≈ 110 µM) |
| CCc1nnc(NC(=O)c2cc3c([nH]c4ccccc43)c(C)n2)s1 [Compound C16, N-(5-ethyl-1,3,4-thiadiazol-2-yl)-1-methyl-9H-beta-carboline-3-carboxamide] | 256 (≈ 759 µM) | 6.7 | 80 | 16 (≈ 47.4 µM) | 8 (≈ 23.7 µM) | 32 (≈ 94.8 µM) | 16 (≈ 47.4 µM) | 16 (≈ 47.4 µM) | 16 (≈ 47.4 µM) | 32 (≈ 94.8 µM) | 32 (≈ 94.8 µM) | 16 (≈ 47.4 µM) | 16 (≈ 47.4 µM) | 32 (≈ 94.8 µM) | 32 (≈ 94.8 µM) | 32 (≈ 94.8 µM) | 16 (≈ 47.4 µM) | 16 (≈ 47.4 µM) | 8 (≈ 23.7 µM) | 64 (≈ 190 µM) | pIC50 (SecA of Ca. L. asiaticus): 6.60; inhibition of ATPase activity of SecA, in words (SecA of Ca. L. asiaticus): high activity; MIC (Sinorhizobium meliloti): 32 µg/mL (≈ 94.8 µM); MBC [1]: 128 µg/mL (≈ 379 µM); MIC [1]: 64 µg/mL (≈ 190 µM); mean Ct value (CLAS populations) (CLAS populations; 2 days after treatment): 23.76 a; mean Ct value (CLAS populations) (CLAS populations; 4 days after treatment): 25.43 b; mean Ct value (CLAS populations) (CLAS populations; Before treatment): 22.71 a; CLAS population reduction as compared to water-treated control (CLAS populations; P<0.05, Fisher's LSD): significant effect |
